biological target: T1, Kv7.2/7.3 (Homo sapiens, UniProt O43525+O43526); assay: Kv7.2/7.3 Thallium Flux Assay (FluxOR II Green); type: cell-based; conditions: single concentration of 10 μM; fluorescence at 90 sec normalized to positive control (retigabine, 30 μM); hKv7.2/7.3 cell line
T1 construct: Kv7.3 is constitutive and Kv7.2 is tetracycline-induced
Text: The Thallium Flux Assay is used as a surrogate indicator of potassium channel activity.
The experimental protocol was adapted from the FluxOR™ II Green Potassium Ion Channel Assay User Guide (Pub. No. MAN0016084, Invitrogen). Conditions were optimized for the Kv7.2/7.3 cell line.
Cell Line: The hKV7.2/7.3 cell line was obtained from Chantest (cat. #CT6147).
Cell Culture: Kv7.2/7.3 cells were maintained in a media containing DMEM/F12; 50/50 (Fisher 11-330), 10% Fetal Bovine Serum (FBS) (Fisher 26-140), 100 units/mL Penicillin-Streptomycin (Fisher 15-140), 0.005 mg/ml Blasticidin (InvivoGen ant-bl-1), 0.5 mg/mL Geneticin (InvivoGen ant-gn-5), and 0.1 mg/mL Zeocin (Fisher R25001). One day prior to experimentation, cells were plated in 96 well clear bottom plates (Corning cat. #353219) in a media without Blasticidin, Geneticin, or Zeocin. In this cell line Kv7.3 channel expression is controlled by a constitutive promoter. Kv7.2 channel expression was induced by adding tetracycline (Sigma T7660) at a final concentration of 10 ng/mL overnight in a cell culture incubator at 37° C. and 5% CO2. On the day of assay, the cell culture medium in the 96-well plates was replaced by assay buffer containing the thallium-sensitive fluorescent sensor, FluxOR II Green prepared according to manufacturer's instructions. The 96-well plates were then incubated for 1 h at 37° C. Following the incubation, the FluxOR II Green-containing solution was replaced with extracellular solution.
Test Compound Plates: The test compound is diluted in a mixture of 0.1% DMSO/extracellular solution at a single concentration of 10 μM. Dilutions were made on a Biomek NXP (BECKMAN COULTER). Extracellular solution contained (in mM: 145 NaCl, 4 KCl, 2 CaCl2), 1 MgCl2, 10 HEPES, and 10 Glucose, pH 7.4)
Measurement and data analysis: Thallium-flux-mediated changes in intracellular fluorescence were made using a plate reader (Enspire, Perkin Elmer) set with an excitation wavelength of 475 nm and an emission wavelength of 530 nm. After a 15 sec baseline measurement, the stimulus buffer containing thallium and potassium was added to the 96-well plate containing FluxOR II Green-loaded cells and test compounds. Fluorescence values at 90 sec were normalized to the positive control (retigabine, 30 μM) and test compound activities were assigned categories according to the formula: “No Activity <0.15, “+” Moderate Activity 0.15-0.7, and “++” High Activity >0.7.

Row | SMILES | Kv7.2/7.3 Activity
1 | C[C@@H](C(=O)Nc1n[nH]c(-c2ccc(Cl)s2)c1C1CCC1)C1(C(F)(F)F)CC1 (stereo in doubt) [Compound 5, N-(5-(5-chlorothiophen-2-yl)-4-cyclobutyl-1H-pyrazol-3-yl)-2-(1-(trifluoromethyl)cyclopropyl)propanamide] | + (“+” Moderate Activity 0.15-0.7)
2 | O=C(CC1CC(F)(F)C1)Nc1n[nH]c(-c2ccc(F)cc2)c1C1CCC1 [Compound 1, N-(4-cyclobutyl-5-(4-fluorophenyl)-1H-pyrazol-3-yl)-2-(3,3-difluorocyclobutyl)acetamide] | ++ (“++” High Activity ≥0.7)
3 | O=C(Nc1n[nH]c(-c2ccc(Cl)s2)c1C1CCC1)C1CC(F)(F)C1 [Compound 2, N-(5-(5-chlorothiophen-2-yl)-4-cyclobutyl-1H-pyrazol-3-yl)-3,3-difluorocyclobutane-1-carboxamide] | ++ (“++” High Activity ≥0.7)
4 | O=C(Nc1n[nH]c(-c2ccc(Cl)s2)c1C1CCC1)C1CSC1 [Compound 3, N-(5-(5-chlorothiophen-2-yl)-4-cyclobutyl-1H-pyrazol-3-yl)thietane-3-carboxamide] | − (“−” No Activity <0.15)
5 | O=C(Nc1n[nH]c(-c2ccc(Cl)s2)c1C1CCC1)C1CC(C(F)(F)F)C1 (stereo not shown) [Compound 4, N-(5-(5-chlorothiophen-2-yl)-4-cyclobutyl-1H-pyrazol-3-yl)-3-(trifluoromethyl)cyclobutane-1-carboxamide] | ++ (“++” High Activity ≥0.7)
6 | O=C(Nc1n[nH]c(-c2ccc(F)cc2)c1C1CCC1)C1CC(F)(F)C1 [Compound 6, N-(4-cyclobutyl-5-(4-fluorophenyl)-1H-pyrazol-3-yl)-3,3-difluorocyclobutane-1-carboxamide] | ++ (“++” High Activity ≥0.7)
7 | O=C(Nc1[nH]nc(C2CC(F)(F)C2)c1C1CCC1)OC1CC(F)(F)C1 [Compound 7, 3,3-difluorocyclobutyl (4-cyclobutyl-3-(3,3-difluorocyclobutyl)-1H-pyrazol-5-yl)carbamate] | ++ (“++” High Activity ≥0.7)
